Source: PMC10296995, “Phospholipid Encapsulation of an Anti-Fibrotic Endopeptide to Enhance Cellular Uptake and Myocardial Retention” (Cells, 2023)
Where a SMILES comes first, the peptide text is derived from it.

How the values were obtained:
[1] = system: primary mouse cardiac fibroblasts; experiment: Cellular uptake by flow cytometry, cardiac fibroblasts; type: cell-based; conditions: FITC-labeled peptide 0.24 µg/mL, 4 h, mean ± SD, n = 4
Protocol: Cellular uptake of L-Ac-SDKP was assessed in mouse cardiac fibroblasts and macrophages. Briefly, cultured macrophages (RAW 264.7 cells, ATCC) and primary mouse cardiac fibroblasts were incubated with L-Ac-SDKP or free peptides (Ac-SDKP) at a concentration of 0.24 µg/mL. For the intracellular distribution assay, cells were cultured on sterile coverslips, incubated with Ac-SDKP or L-Ac-SDKP for 4 h, fixed with 4% paraformaldehyde, mounted, and imaged using a fluorescence microscope (Zeiss LSM 800 laser scanning microscope) at ×400 magnification. For quantification of the peptide uptake, cells were detached and examined with a BD Accuri C6-Plus flow cytometer and further analyzed by FCS Express 6-De Novo software, […].

[2] = system: human cardiac fibroblasts; experiment: MTT cell viability assay, cardiac fibroblasts; type: cell-based; conditions: 0.24 µg/mL, 24 h, n = 7-8
Protocol: To access cell viability and proliferation in response to the liposome-peptide, Thiazolyl Blue Tetrazolium Bromide (MTT; Sigma-Aldrich, M2128) assay was performed. Briefly, human cardiac fibroblasts (Lifeline Cell Technology, San Diego, CA, USA #FC-0060) and RAW macrophages were plated into 96-well plates at a density of 8000–10,000 cells/well. After 24 h, cells were serum-starved overnight, followed by incubation in empty liposomes and PBS (L-PBS), L-Ac-SDKP (0.24 µg/mL), or Ac-SDKP (0.24 µg/mL) for an additional 24 h. After this, the media were replaced, and the cells were incubated in the MTT substrate for 3.5 h at 37 °C. The yellow-orange colored product, a stable soluble formazan, was quantified at 450 nm using a microplate reader. Relative viability was calculated in relation to the cells treated with culture media alone as a control.

[3] = rapid breakdown by angiotensin-converting enzymes; cited from earlier work
Description: (a) Schematic representation of free Ac-SDKP, a liposome (a lipid bilayer nanoparticle), and L-Ac-SDKP (Ac-SDKP inside the liposome). (b,c) Representative graphs of liposome size distribution and zeta potential, respectively, by nanoparticle tracking analysis. Comparative data for empty liposome (L-PBS) and L-Ac-SDKP for (d) size, (e) polydispersity, and (f) zeta potential. (g), Ac-SDKP concentration in the liposomal formulations (L-PBS vs. L-Ac-SDKP). Cryo-TEM images of L-Ac-SDKP (h) and empty liposome (L-PBS) (i) and a comparative data for size (j). Scale ...

- percentage of FITC-positive cardiac fibroblasts (uptake) [1]: 8.5% ± 2.96
SMILES: CC(=O)N[C@@H](CO)C(=O)N[C@@H](CC(=O)O)C(=O)N[C@@H](CCCCN)C(=O)N1CCC[C@H]1C(=O)O [Ac-SDKP, N-acetyl-ser-asp-lys-pro] (Ac-SDKP-OH)
- percent cell viability, cardiac fibroblasts [2]: did not affect percent cell viability
- plasma half-life [3]: 4.5 min
